Data: patent publication US8445501B2, “Substituted 7-carboxamido-pyrrolo[3,2-d]pyrimidines” (Takeda GmbH, priority 2008, dated 2013)

Target: T1, human PDE5 (Homo sapiens, UniProt O76074)
T1 construct: from tissue; host or cells: platelets from fresh blood of human donors (lysate, 10,000 g supernatant)
Experiment: Inhibition of the type 5 phosphodiesterase (PDE5) activity, modified SPA test with platelet lysate
Assay type: biochemical
Details: PDE5 from human platelet lysate, 0.5 μM cGMP
How it was run: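 Human platelet lysate (10,000 g supernatant) as PDE5 source in SPA with 0.5 μM cGMP plus [3H]cGMP tracer, pH 7.4, 5 mM Mg2+, 1 μM motapizone and 10 nM PDE2 inhibitor; 10–20% conversion. 5 min preincubation, 15 min at 37 °C, stopped with SPA beads/IBMX. IC50 by non-linear regression.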

Q: `CC(=O)c1ccc(OCC2CC2)c(-c2ncnc3c(C(=O)NC4CCN(C(=O)[C@H](C)O)CC4)c[nH]c23)c1` [Example 264, 4-(5-Acetyl-2-cyclopropylmethoxy-phenyl)-5H-pyrrolo[3,2-d]pyrimidine-7-carboxylic acid [1-((S)-2-hydroxy-propanoyl)piperidin-4-yl]-amide] was tested. Which IC50 did it give?
A: 0.219 nM

Q: For `COCC(=O)N1CCC(NC(=O)c2c[nH]c3c(-c4cc(C(C)=O)ccc4OCC4CC4)ncnc23)CC1` [Example 265, 4-(5-Acetyl-2-cyclopropylmethoxy-phenyl)-5H-pyrrolo[3,2-d]pyrimidine-7-carboxylic acid [1-(2-methoxy-acetyl)piperidin-4-yl]-amide], which IC50 is on record?
A: 0.288 nM

Q: For `CC(=O)c1ccc(OCC2CC2)c(-c2ncnc3c(C(=O)NC4CCN(C(C)=O)CC4)c[nH]c23)c1` [Example 266, 4-(5-Acetyl-2-cyclopropylmethoxy-phenyl)-5H-pyrrolo[3,2-d]pyrimidine-7-carboxylic acid (1-acetyl-piperidin-4-yl)-amide], which IC50 is on record?
A: 0.0794 nM

Q: `CC(=O)c1cc(-c2ncnc3c(C(=O)NC4CCN(C(=O)[C@H](C)O)CC4)c[nH]c23)c(OCC2CC2)cc1C` [Example 267, 4-(5-Acetyl-2-cyclopropylmethoxy-4-methyl-phenyl)-5H-pyrrolo[3,2-d]pyrimidine-7-carboxylic acid [1-((S)-2-hydroxy-propionyl)piperidin-4-yl]-amide] was tested. Which IC50 did it give?
A: 0.324 nM

Q: For `CC(=O)c1cc(-c2ncnc3c(C(=O)NC4CCN(C(C)=O)CC4)c[nH]c23)c(OCC2CC2)cc1C` [Example 268, 4-(5-Acetyl-2-cyclopropylmethoxy-4-methyl-phenyl)-5H-pyrrolo[3,2-d]pyrimidine-7-carboxylic acid (1-acetyl-piperidin-4-yl)-amide], which IC50 is on record?
A: 0.794 nM

Q: Which IC50 does the source give for `COCCNC(=O)[C@H]1CC[C@H](NC(=O)c2c[nH]c3c(-c4c(OCC5CC5)ccc5c4OCO5)ncnc23)CC1` [Example 269, trans-4-(5-Cyclopropylmethoxy-benzo[1,3]dioxol-4-yl)-5H-pyrrolo[3,2-d]pyrimidine-7-carboxylic acid [4-(2-methoxy-ethylcarbamoyl)-cyclohexyl]-amide] here?
A: 0.575 nM

Q: How did the IC50 turn out when `O=C(N[C@H]1CC[C@H](C(=O)NC2CC2)CC1)c1c[nH]c2c(-c3c(OCC4CC4)ccc4c3OCO4)ncnc12` [Example 270, trans-4-(5-Cyclopropylmethoxy-benzo[1,3]dioxol-4-yl)-5H-pyrrolo[3,2-d]pyrimidine-7-carboxylic acid (4-cyclopropylcarbamoyl-cyclohexyl)-amide] was run?
A: 0.191 nM

Q: `COc1ccc(-c2ncnc3c(C(=O)N[C@H]4CC[C@H](C(=O)NC5CC5)CC4)c[nH]c23)c(OCC2CC2)c1` [Example 271, trans-4-(2-Cyclopropylmethoxy-4-methoxy-phenyl)-5H-pyrrolo[3,2-d]pyrimidine-7-carboxylic acid (4-cyclopropylcarbamoyl-cyclohexyl)-amide] was tested. Which IC50 did it give?
A: 0.55 nM

Q: For `COCCNC(=O)[C@H]1CC[C@H](NC(=O)c2c[nH]c3c(-c4ccc(OC)cc4OCC4CC4)ncnc23)CC1` [Example 272, trans-4-(2-Cyclopropylmethoxy-4-methoxy-phenyl)-5H-pyrrolo[3,2-d]pyrimidine-7-carboxylic acid [4-(2-methoxy-ethylcarbamoyl)-cyclohexyl]-amide], which IC50 is on record?
A: 0.708 nM

Q: With `O=C(N[C@H]1CC[C@H](C(=O)NC2CC2)CC1)c1c[nH]c2c(-c3cc(F)ccc3OCC3CC3)ncnc12` [Example 273, trans-4-(2-Cyclopropylmethoxy-5-fluoro-phenyl)-5H-pyrrolo[3,2-d]pyrimidine-7-carboxylic acid (4-cyclopropylcarbamoyl-cyclohexyl)-amide] as the compound, how does the IC50 read?
A: 2.19 nM

Q: Which IC50 does the source give for `COCCNC(=O)[C@H]1CC[C@H](NC(=O)c2c[nH]c3c(-c4cc(F)ccc4OCC4CC4)ncnc23)CC1` [Example 274, trans-4-(2-Cyclopropylmethoxy-5-fluoro-phenyl)-5H-pyrrolo[3,2-d]pyrimidine-7-carboxylic acid [4-(2-methoxy-ethylcarbamoyl)-cyclohexyl]-amide] here?
A: 5.25 nM

Q: `COCCNC(=O)[C@H]1CC[C@H](NC(=O)c2c[nH]c3c(-c4c(OCC5CCC5)ccc5c4OCO5)ncnc23)CC1` [Example 275, trans-4-(5-Cyclobutylmethoxy-benzo[1,3]dioxol-4-yl)-5H-pyrrolo[3,2-d]pyrimidine-7-carboxylic acid [4-(2-methoxy-ethylcarbamoyl)-cyclohexyl]-amide] was tested. Which IC50 did it give?
A: 0.347 nM

Q: `O=C(N[C@H]1CC[C@H](C(=O)NC2CC2)CC1)c1c[nH]c2c(-c3c(OCC4CCC4)ccc4c3OCO4)ncnc12` [Example 276, trans-4-(5-Cyclobutylmethoxy-benzo[1,3]dioxol-4-yl)-5H-pyrrolo[3,2-d]pyrimidine-7-carboxylic acid (4-cyclopropylcarbamoyl-cyclohexyl)-amide] was tested. Which IC50 did it give?
A: 0.166 nM

Q: How did the IC50 turn out when `CC(=O)N1CCC(NC(=O)c2c[nH]c3c(-c4cc(F)c(O)cc4OCC4CC4)ncnc23)CC1` [Example 277, 4-(2-Cyclopropylmethoxy-5-fluoro-4-hydroxy-phenyl)-5H-pyrrolo[3,2-d]pyrimidine-7-carboxylic acid (1-acetyl-piperidin-4-yl)-amide] was run?
A: 93.3 nM

Q: `CCC(=O)N1CCC(NC(=O)c2c[nH]c3c(-c4cc(F)c(O)cc4OCC4CC4)ncnc23)CC1` [Example 278, 4-(2-Cyclopropylmethoxy-5-fluoro-4-hydroxy-phenyl)-5H-pyrrolo[3,2-d]pyrimidine-7-carboxylic acid (1-propionyl-piperidin-4-yl)-amide] was tested. Which IC50 did it give?
A: 57.5 nM

Q: `CC(=O)N1CCC(NC(=O)c2c[nH]c3c(-c4cc(F)c(OC(F)F)cc4OCC4CC4)ncnc23)CC1` [Example 279, 4-[2-Cyclopropylmethoxy-4-(1,1-difluoro-methoxy)-5-fluoro-phenyl]-5H-pyrrolo[3,2-d]pyrimidine-7-carboxylic acid (1-acetyl-piperidin-4-yl)-amide] was tested. Which IC50 did it give?
A: 2.34 nM

Q: For `COCC(=O)N1CCC(NC(=O)c2c[nH]c3c(-c4cc(F)c(OC(F)F)cc4OCC4CC4)ncnc23)CC1` [Example 280, 4-[2-Cyclopropylmethoxy-4-(1,1-difluoro-methoxy)-5-fluoro-phenyl]-5H-pyrrolo[3,2-d]pyrimidine-7-carboxylic acid [1-(2-methoxy-ethanoyl)-piperidin-4-yl]amide], which IC50 is on record?
A: 1.74 nM

Q: `O=C(NC1CCN(C(=O)CO)CC1)c1c[nH]c2c(-c3cc(F)c(O)cc3OCC3CC3)ncnc12` [Example 281, 4-(2-Cyclopropylmethoxy-5-fluoro-4-hydroxy-phenyl)-5H-pyrrolo[3,2-d]pyrimidine-7-carboxylic acid [1-(2-hydroxy-acetyl)piperidin-4-yl]-amide] was tested. Which IC50 did it give?
A: 851 nM

Q: How did the IC50 turn out when `C[C@H](O)C(=O)N1CCC(NC(=O)c2c[nH]c3c(-c4cc(F)c(O)cc4OCC4CC4)ncnc23)CC1` [Example 282, 4-(2-Cyclopropylmethoxy-5-fluoro-4-hydroxy-phenyl)-5H-pyrrolo[3,2-d]pyrimidine-7-carboxylic acid [1-((S)-2-hydroxy-propionyl)piperidin-4-yl]-amide] was run?
A: 251 nM

Q: Which IC50 does the source give for `O=C(NC1CCN(C(=O)CO)CC1)c1c[nH]c2c(-c3cc(F)c(OC(F)F)cc3OCC3CC3)ncnc12` [Example 283, 4-[2-Cyclopropylmethoxy-4-(1,1-difluoro-methoxy)-5-fluoro-phenyl]-5H-pyrrolo[3,2-d]pyrimidine-7-carboxylic acid [1-(2-hydroxy-acetyl)piperidin-4-yl]-amide] here?
A: 5.13 nM

Q: With `C[C@H](O)C(=O)N1CCC(NC(=O)c2c[nH]c3c(-c4cc(F)c(OC(F)F)cc4OCC4CC4)ncnc23)CC1` [Example 284, 4-[2-Cyclopropylmethoxy-4-(1,1-difluoro-methoxy)-5-fluoro-phenyl]-5H-pyrrolo[3,2-d]pyrimidine-7-carboxylic acid [1-((S)-2-hydroxy-propionyl)-piperidin-4-yl]-amide] as the compound, how does the IC50 read?
A: 2.88 nM

Q: With “trans-4-(2-Cyclopropylmethoxy-4-fluoro-phenyl)-5H-pyrrolo[3,2-d]pyrimidine-7-carboxylic acid [4-((S)-2-hydroxy-propionylamino)-cyclohexyl]-amide [Example 223]” as the compound, how does the “-log IC50 (mol/l)” value read?
A: 8.46
